Test: Initial experiments on chlorthalidone API in solution
Assay type: physicochemical
Settings: without excipients; would agglomerate and cake
Text: Accordingly, for stabilizing the chlorthalidone in a stabilized suspension, the inventors contemplated combining the chlorthalidone with select excipients. These excipients include at least a solubilizing and/or a wetting agent, at least one suspending agent, at least one viscosity increasing agent or at least one anti-caking agent, and water. The suspension may also further include an anti-foaming agent, at least one antimicrobial, and at least one sweetening agent.

## NS(=O)(=O)c1cc(C2(O)NC(=O)c3ccccc32)ccc1Cl (stereo not shown) [chlorthalidone, Chlorthalidone]
  stability of the API in solution: not stable in solution
